Drawing on PMC6920357, “CETSA-based target engagement of taxanes as biomarkers for efficacy and resistance” (Scientific Reports, 2019), this text covers EC50 for 3 molecules.

The EC50 is the midpoint of the concentration-response curve.

In the assay the test system is T1, β-tubulin.
T1 construct: gene TUBB; endogenous untagged beta-tubulin (isotypes not resolved) in microtubules with alpha-tubulin, intact human cancer cells
The experiment in a line: isothermal dose response CETSA, AlphaLISA. Type of assay: cell-based. Background: Alpha assays give light when donor and acceptor beads are brought close together.

Each structure is given as a SMILES string. Read-outs that look alike come from different tables or passages of the source.

`CC(=O)O[C@H]1C(=O)[C@@]2(C)[C@H]([C@H](OC(=O)c3ccccc3)[C@]3(O)C[C@H](OC(=O)[C@H](O)[C@@H](NC(=O)c4ccccc4)c4ccccc4)C(C)=C1C3(C)C)[C@]1(OC(C)=O)CO[C@@H]1C[C@@H]2O` [paclitaxel] yielded an EC50 of 1550 ± 300 nM.
For the molecule `CCC1=C[C@@H]2CN(C1)Cc1c([nH]c3ccccc13)[C@@](C(=O)OC)(c1cc3c(cc1OC)N(C)[C@H]1[C@@](O)(C(=O)OC)[C@H](OC(C)=O)[C@]4(CC)C=CCN5CC[C@]31[C@@H]54)C2` [vinorelbine], the EC50 (intact PC346C prostate cancer cells, heated 63 °C, vinca site, read-out: EC50) amounted to 2020 ± 310 nM.
As to `CC(=O)O[C@@]12CO[C@@H]1C[C@H](O)[C@@]1(C)C(=O)[C@H](O)C3=C(C)[C@@H](OC(=O)[C@H](O)[C@@H](NC(=O)OC(C)(C)C)c4ccccc4)C[C@@](O)([C@@H](OC(=O)c4ccccc4)[C@H]21)C3(C)C` [docetaxel], where the note is “intact K562-P cells, 1 h 45 min at 37 °C, heated 63 °C 3 min, no tariquidar, taxane site, read-out: EC50”, the EC50 is 300 ± 80 nM.
